Test results taken from patent US8153116B2, “Use of conditional plasmodium strains lacking an essential gene in malaria vaccination” (University of Connecticut, priority 2006, dated 2012).

Test system: wild type, pfpmtΔ+PfPMT and pfpmtΔ parasites
Test: TUNEL assay of drug-treated parasites
Type: cell-based, Plasmodium falciparum
Settings: 100 nM, 24 h
Experimental: The terminal deoxynucleotidyl transferase (TdT) dUTP nick end labeling (TUNEL) kit (Roche) was used to detect apoptotic cells following the manufacturer's instructions, with some modifications. Briefly, asynchronous cultures were grown to 10% parasitemia and 1 ml of the culture aliquots were washed twice with PBS and the cell count adjusted to 1×10^6 cells/ml. Fixation was achieved by resuspending the cells in 2% paraformaldehyde solution in PBS and incubated at room temperature for 1 h. The fixed cells were washed twice with PBS, resuspended in 100 μl of 0.1% Triton X-100 in 0.1% sodium citrate solution, and incubated for 2 min on ice. Cells were then washed twice in PBS and kept on ice until labeling. A positive control sample was prepared by incubating fixed and permeabilized cells with 3000 U/ml of DNase I for 15 min at room temperature followed by two washes with PBS. To label the cells, 50 μl of the TUNEL reaction mixture was added to the cell pellet and mixed gently. A negative control sample was included by treating fixed, permeabilized cells with the labeling solution in, the absence of the terminal TdT enzyme. The reaction mixtures were incubated in the dark at 37° C. for 1 h and then washed twice in PBS and resuspended in 250 μl PBS. Cells were analyzed by fluorescence microscopy at 525 nm wavelength with the FITC filter. […]

## CCN(CC)CCCC(C)Nc1ccnc2cc(Cl)ccc12 (stereo not shown) [chloroquine]
  TUNEL staining of drug-treated parasites: positively stained with TUNEL
